The values that follow come from PubChem BioAssay (NCI).

Structures are written as SMILES.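 In this assay, cells in 96-well plates receive the compound at five concentrations for 48 hours. Endpoints are linearly interpolated between the surrounding concentrations. The concentration for full growth arrest is given as TGI.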

The first assay deals with HOP-92 NSCLC. Put plainly: NCI-60 cell line screen, 48 h.
For the compound `CO/N=C1/c2sccc2[C@H](NC(=O)CNC(=O)OC(C)(C)C)[C@@H]1O`, the TGI was > 100 µM.

With `CCOC(=O)c1c(SCCN2CCCC2)n(-c2ccccc2)c(=S)n(-c2ccccc2)c1=O`, the TGI was 4.48 µM.

In the case of `O=c1c2cc(I)ccc2[nH]c(=S)n1Cc1ccccc1`, the TGI stood at 63.2 µM.

For the compound `Cc1cccc(C[C@@]2(SCc3ccccc3)C(C)(C)[C@@H]3CC[C@@]2(C)C3)n1`, the TGI is 27.6 µM.

The compound `O=C1/C(=C/c2ccc([N+](=O)[O-])cc2)CNC/C1=C\c1ccc([N+](=O)[O-])cc1` returned a TGI of 59 µM.

Take `O=C(O)c1ccc(NS(=O)(=O)Cc2ccccc2)cc1`: the TGI was > 100 µM.

`CCOC(=O)c1cnc2[nH]ccn2c1=O`: the TGI was > 10 µM.

As for `O=C1C(Br)=Cc2c(Cl)sc(Cl)c21`, the TGI is 7 µM.

`O=[N+]([O-])C(=C(Sc1ccccc1)Sc1ccccc1)C(Cl)=C(Cl)Cl` had a TGI of 5.99 µM.

With `NCCCC(N)C(=O)O` (stereo not given), the TGI is > 100 µM.

Another assay relates to K-562 leukemia. Put plainly: NCI-60 cell line screen, 48 h.
`CO/N=C1/c2sccc2[C@H](NC(=O)CNC(=O)OC(C)(C)C)[C@@H]1O`: the TGI was > 100 µM.

`CCOC(=O)c1c(SCCN2CCCC2)n(-c2ccccc2)c(=S)n(-c2ccccc2)c1=O` registered a TGI of 5.63 µM.

With `O=c1c2cc(I)ccc2[nH]c(=S)n1Cc1ccccc1`, the TGI was > 100 µM.

In turn, `Cc1cccc(C[C@@]2(SCc3ccccc3)C(C)(C)[C@@H]3CC[C@@]2(C)C3)n1` showed a TGI of 28.9 µM.

On to `O=C1/C(=C/c2ccc([N+](=O)[O-])cc2)CNC/C1=C\c1ccc([N+](=O)[O-])cc1`, for which the TGI came out at 1.21 µM.

Consider `O=C(O)c1ccc(NS(=O)(=O)Cc2ccccc2)cc1`, for which the TGI is > 100 µM.

Consider `CCOC(=O)c1cnc2[nH]ccn2c1=O`, for which the TGI was > 10 µM.

In turn, `O=C1C(Br)=Cc2c(Cl)sc(Cl)c21` displayed a TGI of 13.6 µM.

As to `O=[N+]([O-])C(=C(Sc1ccccc1)Sc1ccccc1)C(Cl)=C(Cl)Cl`, the TGI was determined as 0.701 µM.

In the case of `NCCCC(N)C(=O)O` (stereo not given), the TGI was > 100 µM.

The next assay relates to SR leukemia. Put plainly: NCI-60 cell line screen, 48 h.
As to `CO/N=C1/c2sccc2[C@H](NC(=O)CNC(=O)OC(C)(C)C)[C@@H]1O`, the TGI was > 100 µM.

As for `CCOC(=O)c1c(SCCN2CCCC2)n(-c2ccccc2)c(=S)n(-c2ccccc2)c1=O`, the TGI was 2.05 µM.

As for `O=c1c2cc(I)ccc2[nH]c(=S)n1Cc1ccccc1`, the TGI was > 100 µM.

Compound `Cc1cccc(C[C@@]2(SCc3ccccc3)C(C)(C)[C@@H]3CC[C@@]2(C)C3)n1` had a TGI of 31.9 µM.

For `O=C1/C(=C/c2ccc([N+](=O)[O-])cc2)CNC/C1=C\c1ccc([N+](=O)[O-])cc1`, the TGI turned out to be 1.15 µM.

In the case of `O=C(O)c1ccc(NS(=O)(=O)Cc2ccccc2)cc1`, the TGI was > 100 µM.

As for `CCOC(=O)c1cnc2[nH]ccn2c1=O`, the TGI is > 10 µM.

On to `O=C1C(Br)=Cc2c(Cl)sc(Cl)c21`, for which the TGI was 15.5 µM.

Compound `O=[N+]([O-])C(=C(Sc1ccccc1)Sc1ccccc1)C(Cl)=C(Cl)Cl` showed a TGI of 0.564 µM.

For the compound `NCCCC(N)C(=O)O` (stereo not given), the TGI was > 100 µM.

The subject of the next assay is COLO 205 colon. Nature of the assay: NCI-60 cell line screen, 48 h.
Consider `CO/N=C1/c2sccc2[C@H](NC(=O)CNC(=O)OC(C)(C)C)[C@@H]1O`, for which the TGI is > 100 µM.

Compound `CCOC(=O)c1c(SCCN2CCCC2)n(-c2ccccc2)c(=S)n(-c2ccccc2)c1=O` had a TGI of 3.53 µM.

As for `O=c1c2cc(I)ccc2[nH]c(=S)n1Cc1ccccc1`, the TGI is > 100 µM.

`Cc1cccc(C[C@@]2(SCc3ccccc3)C(C)(C)[C@@H]3CC[C@@]2(C)C3)n1` displayed a TGI of 29 µM.

As for `O=C1/C(=C/c2ccc([N+](=O)[O-])cc2)CNC/C1=C\c1ccc([N+](=O)[O-])cc1`, the TGI was determined as 28.3 µM.

Turning to `O=C(O)c1ccc(NS(=O)(=O)Cc2ccccc2)cc1`, the TGI is > 100 µM.

With `CCOC(=O)c1cnc2[nH]ccn2c1=O`, the TGI is > 10 µM.

On to `O=C1C(Br)=Cc2c(Cl)sc(Cl)c21`, for which the TGI came out at 23.6 µM.

`O=[N+]([O-])C(=C(Sc1ccccc1)Sc1ccccc1)C(Cl)=C(Cl)Cl` came in with a TGI of 0.697 µM.

Regarding `NCCCC(N)C(=O)O` (stereo not given), the TGI is > 100 µM.

Another assay deals with HT29 colon. Nature of the assay: NCI-60 cell line screen, 48 h.
As to `CO/N=C1/c2sccc2[C@H](NC(=O)CNC(=O)OC(C)(C)C)[C@@H]1O`, the TGI was > 100 µM.

For `CCOC(=O)c1c(SCCN2CCCC2)n(-c2ccccc2)c(=S)n(-c2ccccc2)c1=O`, the TGI came to 11.5 µM.

As for `O=c1c2cc(I)ccc2[nH]c(=S)n1Cc1ccccc1`, the TGI is > 100 µM.

`Cc1cccc(C[C@@]2(SCc3ccccc3)C(C)(C)[C@@H]3CC[C@@]2(C)C3)n1` registered a TGI of 31.9 µM.

Turning to `O=C1/C(=C/c2ccc([N+](=O)[O-])cc2)CNC/C1=C\c1ccc([N+](=O)[O-])cc1`, the TGI was 3.57 µM.

With `O=C(O)c1ccc(NS(=O)(=O)Cc2ccccc2)cc1`, the TGI was > 100 µM.

As for `CCOC(=O)c1cnc2[nH]ccn2c1=O`, the TGI is > 10 µM.

`O=C1C(Br)=Cc2c(Cl)sc(Cl)c21` came in with a TGI of 27.3 µM.

Turning to `O=[N+]([O-])C(=C(Sc1ccccc1)Sc1ccccc1)C(Cl)=C(Cl)Cl`, the TGI was 0.487 µM.

Regarding `NCCCC(N)C(=O)O` (stereo not given), the TGI is > 100 µM.

For another assay, the system named is CCRF-CEM leukemia. Put plainly: NCI-60 cell line screen, 48 h.
With `CO/N=C1/c2sccc2[C@H](NC(=O)CNC(=O)OC(C)(C)C)[C@@H]1O`, the TGI was > 100 µM.

With `CCOC(=O)c1c(SCCN2CCCC2)n(-c2ccccc2)c(=S)n(-c2ccccc2)c1=O`, the TGI was 4.14 µM.

Regarding `O=c1c2cc(I)ccc2[nH]c(=S)n1Cc1ccccc1`, the TGI was 23.1 µM.

In the case of `Cc1cccc(C[C@@]2(SCc3ccccc3)C(C)(C)[C@@H]3CC[C@@]2(C)C3)n1`, the TGI is 27.6 µM.

`O=C1/C(=C/c2ccc([N+](=O)[O-])cc2)CNC/C1=C\c1ccc([N+](=O)[O-])cc1` had a TGI of 2.97 µM.
